Reference: patent US12528840B2, “Transcription active complex targeting cancer drug from viral protein sequence” (The Regents of the University of California, priority 2020, dated 2026)

system: BCBL-1 cells; details: MTT, compared to Mut d1-1 control peptide
Description: FIG. 8. Amino acid conservation among different gamma-herpesviral transactivator proteins. […] DE; D substitute to glutamic acid, DS: D substituted for serine. ST; serine substituted for threonine (marked in red).
Amino acid sequence alignment identified homologous protein sequences in other gamma-herpesvirus protein sequence (The Top table in FIG. 8a, also shown in FIG. 2). Based on their alignment, “non-natural” protein sequences were generated by substituting specific amino acids (The peptides are: Wt d1-1, DS 3-1, DE 3-1, and Mut d1-1 (control peptide) from the top to the bottom in the Bottom Table in FIG. 8a). Those four peptides were used in MTT assays in FIG. 8b to examine the effects on cell growth of BCBL-1 […] effusion lymphoma (PEL) cell line. Also tested are three D-amino acid substitutions first two amino acids and c-terminal amino acid (ST d3-1), in comparison with one D-amino acid peptide (N-terminus) (Wt d3-1).

Substance | killing of BCBL-1 cells in vitro
d-Arg-KKRR-Ornithine-RRR-B-alanine-LSSILQGLYQL-d-Asp-d Ser [DS 3-1] | killed BCBL-1 cells in vitro at similar efficacies
d-Arg-KKRR-Ornithine-RRR-B-alanine-LSTILQGLYQL-d-Asp-d Thr [ST d3-1] | killed BCBL-1 cells in vitro at similar efficacies
d-Arg-KKRR-Ornithine-RRR-β-alanine-LSSILQGLYQLDT [Wt d1-1] | killed BCBL-1 cells in vitro at similar efficacies
d-Arg-KKRR-Ornithine-RRR-B-alanine-LSSILQGLYQL-d-Asp-d Thr [Wt d3-1] | killed BCBL-1 cells in vitro at similar efficacies
d-Arg-KKRR-Ornithine-RRR-B-alanine-LSSILQGLYQL-d-Asp-d Glu [DE 3-1] | killed BCBL-1 cells in vitro at similar efficacies
